Reference: ChEMBL document CHEMBL4739717, “Methods of treating cartilage disorders through inhibition of clk and dyrk” (2020)

Key:
[1] = Effect on Wnt signaling pathway in human SW480 cells harbouring TCF/LEF luciferase reporter gene and SP5-Luc reporter gene incubated for 36 to 48 hrs by luminescence assay; format: cell-based
[2] = molecular target: Dual specificity tyrosine-phosphorylation-regulated kinase 1A (Homo sapiens, UniProt Q13627); assay: Inhibition of recombinant DYRK1A (unknown origin) using Ser/Thr 18 peptide as substrate incubated for 1 hr in presence of ATP by FRET assay
[3] = Induction of chondrogenesis in human MSC assessed as maximum activity at 300 nM incubated for 6 days by rhodamine B and Nile red staining based imaging analysis relative to control; format: functional; conditions: BMMSC, 144 h, time 6 day
[4] = Inhibition of IL1-beta induced MMP3 expression levels in human chondrocytes assessed as MMP3 levels incubated for 2hrs followed by IL1-beta stimulation and measured after overnight incubation by LANCE assay; format: functional, cell-based; conditions: Chondrocyte
[5] = Induction of chondrogenesis in human MSC assessed as maximum activity at 100 nM incubated for 6 days by rhodamine B and Nile red staining based imaging analysis relative to control; format: functional; conditions: BMMSC, 144 h, time 6 day
[6] = Induction of chondrogenesis in human MSC assessed as incubated for 6 days by rhodamine B and Nile red staining based imaging analysis; format: functional; conditions: bmmsc

EC50 [1] [nM] | EC50 [2] [nM] | EC50 [4] [nM] | EC50 [6] [nM] | Compound | Emax at 0.3 µM [3] [%] | Emax at 0.1 µM [5] [%]
52 | 2 | – | – | CN1CCN(c2cncc3[nH]c(-c4n[nH]c5ccc(-c6cccnc6)cc45)nc23)CC1 | 80.6 | –
> 10000 | 5 | – | – | CC(C)(C)C(=O)Nc1cncc(-c2cnc3[nH]nc(-c4cc5c(-c6ccncc6)cncc5[nH]4)c3c2)c1 | 33.6 | –
> 10000 | 45 | – | – | CC(C)C(=O)Nc1cncc(-c2cc3c(-c4cc5c(-c6ccncc6)nccc5[nH]4)n[nH]c3cn2)c1 | 32.1 | –
8 | 42 | – | – | O=C(Nc1cncc(-c2ccc3[nH]nc(-c4nc5ccncc5[nH]4)c3c2)c1)C1CC1 | 93.8 | –
1730 | 65 | – | – | CC(C)C(=O)Nc1cncc(-c2cc3c(-c4cc5c(-c6cccc(F)c6)cncc5[nH]4)n[nH]c3cn2)c1 | 42.2 | –
9380 | 48 | – | – | CN1CCN(c2nccc3[nH]c(-c4n[nH]c5ccc(-c6cncc(CN7CCCC7)c6)cc45)cc23)CC1 | 31 | –
464 | – | 10.8 | – | CC(C)OCCCNC(=O)c1n[nH]c2ccc(-c3cccnc3)cc12 | – | 92.5
4070 | 23 | – | – | O=C(Nc1cncc(-c2cc3c(-c4cc5c(N6CCCCC6)nccc5[nH]4)n[nH]c3cn2)c1)C1CCC1 | 42.4 | –
> 10000 | 6 | 3000 | – | CCNCc1cncc(-c2cnc3[nH]nc(-c4cc5c(-c6cc(F)cc(CNS(C)(=O)=O)c6)cncc5[nH]4)c3c2)c1 | – | 42.8
86.8 | – | 37.4 | 100 | O=C1COc2cccc(c2)-c2cncc3[nH]c(nc23)-c2n[nH]c3ccc(cc23)-c2cncc(c2)N1 | – | 185
2900 | 28 | – | 30 | Cc1cn(-c2nccc3[nH]c(-c4n[nH]c5ccc(-c6cncc(NC(=O)CC(C)C)c6)nc45)nc23)cn1 | – | 69.3
4750 | 34 | – | 300 | CN1CCN(c2cccc3[nH]c(-c4n[nH]c5ncc(-c6cncc(CN7CCCCC7)c6)cc45)cc23)CC1 | – | 23.6
30.4 | 58 | – | 30 | Cc1ccncc1-c1cc2c(-c3nc4c(-c5cc(F)cc(CNS(C)(=O)=O)c5)cccc4[nH]3)n[nH]c2cn1 | – | 81.8
354 | 28 | – | 10 | O=C(Nc1cncc(-c2ccc3[nH]nc(-c4nc5c(-c6ccc(Cl)s6)ccnc5[nH]4)c3n2)c1)C1CCC1 | – | 102
20.1 | 72 | – | 30 | c1cncc(-c2cc3c(-c4nc5ccccc5[nH]4)n[nH]c3cn2)c1 | – | 80.5
473 | 46 | – | 100 | O=C(Nc1cncc(-c2cnc3[nH]nc(-c4cc5c(-c6cccs6)nccc5[nH]4)c3c2)c1)C1CCC1 | – | 82.2
375 | 20 | – | 100 | Fc1ccccc1-c1cncc2[nH]c(-c3n[nH]c4ncc(-c5cn[nH]c5)cc34)cc12 | – | 51.1
2960 | 6 | – | 30 | Nc1cncc(-c2cc3c(-c4cc5c(N6CCCCC6)cncc5[nH]4)n[nH]c3cn2)c1 | – | 93.5
10 | 26 | – | 100 | Cn1cc(-c2cc3c(-c4nc5c(-c6cccc(F)c6)nccc5[nH]4)n[nH]c3cn2)cn1 | – | 110

EC50 [1] [nM] | EC50 [2] [nM] | EC50 [4] [nM] | EC50 [6] [nM] | Compound | Emax at 0.3 µM [3] [%] | Emax at 0.1 µM [5] [%]
3420 | 3 | – | 10 | CN1CCN(c2nccc3[nH]c(-c4n[nH]c5cnc(-c6cncc(NC(=O)C7CCCCC7)c6)cc45)cc23)CC1 | – | 60.8
> 10000 | 17 | – | 10 | CCCCC(=O)Nc1cncc(-c2cnc3[nH]nc(-c4cc5c(-c6ccncc6)cncc5[nH]4)c3c2)c1 | – | 70.4
> 10000 | 22 | – | 10 | Cc1cn(-c2ccnc3[nH]c(-c4n[nH]c5ccc(-c6cncc(NC(=O)C(C)(C)C)c6)nc45)nc23)cn1 | – | 70.2
1340 | 17 | – | 100 | c1cncc(-c2cc3c(-c4cc5c(-c6cccnc6)cncc5[nH]4)n[nH]c3cn2)c1 | – | 76.4
310 | 1 | 1.1 | 100 | c1cncc(-c2ccc3[nH]nc(-c4cc5c(-c6cccnc6)cncc5[nH]4)c3c2)c1 | – | 58.2
407 | 23 | – | 100 | CN(C)CCNc1cc(F)cc(-c2cccc3[nH]c(-c4n[nH]c5cnc(-c6cncc(N)c6)cc45)cc23)c1 | – | 180
658 | 11 | – | 100 | Nc1cncc(-c2ccc3[nH]nc(-c4cc5c(-c6ccncc6)nccc5[nH]4)c3c2)c1 | – | 76.8
685 | 4 | – | 100 | c1cc2[nH]c(-c3n[nH]c4ccc(-c5cncc(CN6CCCCC6)c5)cc34)cc2cn1 | – | 122
> 10000 | 15 | – | 100 | CN1CCN(c2cncc3[nH]c(-c4n[nH]c5ccc(-c6cncc(NC(=O)CC7CCNCC7)c6)cc45)cc23)CC1 | – | 289
750 | 22 | – | 30 | FC1(F)CCN(Cc2cncc(-c3ccc4[nH]nc(-c5cc6c(N7CCCCC7)cccc6[nH]5)c4c3)c2)C1 | – | 160
23 | 24 | – | 100 | O=C(Cc1ccccc1)Nc1cncc(-c2ccc3[nH]nc(-c4nc5c(-c6cccc(F)c6)cncc5[nH]4)c3c2)c1 | – | 124
1000 | 11 | – | 30 | FC1(F)CCN(Cc2cncc(-c3cnc4[nH]nc(-c5cc6c(-c7ccoc7)cccc6[nH]5)c4c3)c2)C1 | – | 72.1
> 10000 | 20 | – | 300 | Cc1cn(-c2ccnc3[nH]c(-c4n[nH]c5ccc(-c6cncc(NC(=O)C7CCC7)c6)nc45)nc23)cn1 | – | 69.1
915 | 13 | – | 30 | CCCCC(=O)Nc1cncc(-c2ccc3[nH]nc(-c4cc5c(-c6ccoc6)cncc5[nH]4)c3c2)c1 | – | 122
51 | 30 | – | 100 | O=C(Nc1cncc(-c2cnc3[nH]nc(-c4nc5c(-c6ccoc6)cncc5[nH]4)c3c2)c1)c1ccccc1 | – | 110
51.8 | – | 3000 | 50 | O=C1CCc2cccc(c2)-c2cncc3[nH]c(nc23)-c2n[nH]c3ccc(cc23)-c2cncc(c2)N1 | – | 225
41 | 8 | – | 100 | CC(C)(C)C(=O)Nc1cncc(-c2ccc3[nH]nc(-c4nc5c(N6CCCCC6)cncc5[nH]4)c3c2)c1 | – | 114
399 | 1 | – | 30 | CC(C)C(=O)Nc1cncc(-c2cc3c(-c4cc5cnccc5[nH]4)n[nH]c3cn2)c1 | – | 61.2
